# Experimental data reported in ChEMBL document CHEMBL4350985, “1,3-Dioxane as a scaffold for potent and selective 5-HT1AR agonist with in-vivo anxiolytic, anti-depressant and anti-nociceptive activity” (Eur J Med Chem, 2019).
# Experiments:
# [1] = molecular target: T1, 5-hydroxytryptamine receptor 1A (Homo sapiens, UniProt P08908); test: Displacement of [3H]8-OH-DPAT from human cloned 5HT-1AR transfected in HeLa cells incubated for 30 mins by liquid scintillation counter; format: cell-based
# T1 sequence (P08908 whole entry): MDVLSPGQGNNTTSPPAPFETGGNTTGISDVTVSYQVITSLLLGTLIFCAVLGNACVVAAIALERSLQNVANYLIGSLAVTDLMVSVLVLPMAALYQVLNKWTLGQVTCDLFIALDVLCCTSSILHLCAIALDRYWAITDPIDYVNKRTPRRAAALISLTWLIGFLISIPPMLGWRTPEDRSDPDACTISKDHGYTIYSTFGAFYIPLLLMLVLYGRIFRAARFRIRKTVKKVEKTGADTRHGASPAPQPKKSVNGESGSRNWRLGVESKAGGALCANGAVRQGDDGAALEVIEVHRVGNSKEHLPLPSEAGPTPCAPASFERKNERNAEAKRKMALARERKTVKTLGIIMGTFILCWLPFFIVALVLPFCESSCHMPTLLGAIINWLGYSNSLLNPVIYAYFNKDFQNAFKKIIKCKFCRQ
# [2] = molecular target: T2, Alpha-1A adrenergic receptor (Rattus norvegicus) (UniProt P43140); test: Antagonist activity at alpha-1a adrenergic receptor in Wistar rat prostatic vas deferens assessed as inhibition of (-)-noradrenaline-induced contraction
# T2 sequence (whole entry): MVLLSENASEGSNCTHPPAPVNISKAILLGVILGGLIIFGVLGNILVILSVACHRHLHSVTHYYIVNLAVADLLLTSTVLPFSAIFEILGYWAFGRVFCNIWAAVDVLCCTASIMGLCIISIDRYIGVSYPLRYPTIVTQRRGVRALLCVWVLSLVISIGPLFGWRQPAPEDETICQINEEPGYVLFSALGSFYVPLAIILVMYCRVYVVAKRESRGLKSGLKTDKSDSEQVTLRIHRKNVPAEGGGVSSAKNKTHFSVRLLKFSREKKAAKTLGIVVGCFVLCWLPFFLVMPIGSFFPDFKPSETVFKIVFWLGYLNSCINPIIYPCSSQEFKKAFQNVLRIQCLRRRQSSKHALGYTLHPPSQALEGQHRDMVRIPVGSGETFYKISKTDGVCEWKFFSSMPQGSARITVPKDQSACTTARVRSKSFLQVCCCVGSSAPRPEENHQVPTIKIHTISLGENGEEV
# [3] = molecular target: T3, Alpha-1B adrenergic receptor (Homo sapiens, UniProt P35368); test: Displacement of [3H] prazosin from human cloned adrenoceptor alpha 1B expressed in CHO cell membrane incubated for 30 mins by liquid scintillation counter
# T3 sequence (P35368 whole entry): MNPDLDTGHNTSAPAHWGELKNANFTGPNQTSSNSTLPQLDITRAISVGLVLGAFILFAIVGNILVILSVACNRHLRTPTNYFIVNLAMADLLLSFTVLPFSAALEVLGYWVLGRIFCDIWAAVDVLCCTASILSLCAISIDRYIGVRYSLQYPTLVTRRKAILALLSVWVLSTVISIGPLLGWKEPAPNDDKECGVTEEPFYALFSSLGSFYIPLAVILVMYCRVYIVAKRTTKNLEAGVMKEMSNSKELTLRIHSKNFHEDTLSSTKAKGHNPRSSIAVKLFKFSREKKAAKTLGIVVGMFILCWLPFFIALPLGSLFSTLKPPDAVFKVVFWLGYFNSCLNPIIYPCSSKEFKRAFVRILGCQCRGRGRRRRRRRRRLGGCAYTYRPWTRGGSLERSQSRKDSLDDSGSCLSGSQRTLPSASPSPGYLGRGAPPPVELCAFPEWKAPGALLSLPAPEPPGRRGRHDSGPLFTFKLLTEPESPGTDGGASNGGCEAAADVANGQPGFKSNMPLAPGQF
# [4] = molecular target: T4, Alpha-1A adrenergic receptor (Homo sapiens, UniProt P35348); test: biochemical
# T4 sequence (P35348 whole entry): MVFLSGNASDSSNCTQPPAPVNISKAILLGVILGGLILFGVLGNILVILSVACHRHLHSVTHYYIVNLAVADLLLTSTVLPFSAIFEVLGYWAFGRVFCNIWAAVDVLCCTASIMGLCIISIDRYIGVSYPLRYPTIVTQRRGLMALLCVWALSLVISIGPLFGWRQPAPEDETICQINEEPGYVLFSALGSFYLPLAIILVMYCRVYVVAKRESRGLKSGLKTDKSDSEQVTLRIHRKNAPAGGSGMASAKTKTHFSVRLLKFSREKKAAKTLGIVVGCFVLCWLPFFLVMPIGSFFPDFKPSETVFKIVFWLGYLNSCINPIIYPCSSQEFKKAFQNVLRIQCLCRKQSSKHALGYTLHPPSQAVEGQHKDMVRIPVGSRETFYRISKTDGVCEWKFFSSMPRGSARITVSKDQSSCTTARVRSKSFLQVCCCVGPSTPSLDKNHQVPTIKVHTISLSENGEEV
# Description: Displacement of [3H] prazosin from human cloned adrenoceptor alpha 1A expressed in CHO cell membrane incubated for 30 mins by liquid scintillation counting
# [5] = molecular target: T5, Alpha-1D adrenergic receptor (Rattus norvegicus) (UniProt P23944); test: Antagonist activity at alpha-1d adrenergic receptor in Wistar rat thoracic aorta assessed as inhibition of (-)-noradrenaline-induced contractions
# T5 sequence (whole entry): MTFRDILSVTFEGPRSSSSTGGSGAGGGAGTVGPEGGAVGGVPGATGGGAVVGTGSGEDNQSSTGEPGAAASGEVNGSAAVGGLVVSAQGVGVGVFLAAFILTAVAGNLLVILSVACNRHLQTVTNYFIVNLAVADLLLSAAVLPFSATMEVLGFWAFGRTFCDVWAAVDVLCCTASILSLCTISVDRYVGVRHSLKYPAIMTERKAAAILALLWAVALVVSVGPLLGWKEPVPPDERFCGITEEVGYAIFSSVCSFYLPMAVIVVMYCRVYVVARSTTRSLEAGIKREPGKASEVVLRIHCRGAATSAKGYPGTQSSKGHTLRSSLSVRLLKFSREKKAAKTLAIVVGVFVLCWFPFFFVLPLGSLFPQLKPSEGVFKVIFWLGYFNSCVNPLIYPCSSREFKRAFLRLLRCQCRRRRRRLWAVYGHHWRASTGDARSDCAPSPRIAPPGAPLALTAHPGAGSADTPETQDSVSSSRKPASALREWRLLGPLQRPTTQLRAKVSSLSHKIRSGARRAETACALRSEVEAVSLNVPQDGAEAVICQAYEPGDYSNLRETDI
# [6] = molecular target: T6, 5-hydroxytryptamine receptor 1A (Homo sapiens) (UniProt P08908); test: Agonist activity at human recombinant 5HT1A receptor expressed in human HeLa cells assessed as increase in [35S]GTPgammaS binding incubated for 20 mins by liquid scintillation counter relative to control; format: functional, cell-based
# T6 sequence (whole entry): T1 sequence (P08908 whole entry)
Ki [1],pKb [2],Ki [3],Ki [4],pKb [5],Emax [6],SMILES
15.5 nM,6.23,30.9 nM,60.3 nM,7.25,53%,COc1ccccc1OCCNCC[C@H]1CO[C@H](C(c2ccccc2)c2ccccc2)O1 (relative stereo)
0.776 nM,6.99,15.8 nM,24.5 nM,8.68,65.9%,COc1ccccc1OCCNCC1CCOC(c2ccccc2)(c2ccccc2)O1 (stereo unspecified)
1.35 nM,7.65,25.1 nM,17 nM,7.73,78.9%,c1ccc(OCCNCCOC(c2ccccc2)c2ccccc2)cc1
4.57 nM,< 5,2290 nM,141 nM,7.07,69.5%,OCC(CNCCOc1ccccc1)OC(c1ccccc1)c1ccccc1 (stereo unspecified)
7.24 nM,6.18,3020 nM,44.7 nM,7.75,77.3%,COc1ccccc1OCCNCCOC(c1ccccc1)c1ccccc1
1.86 nM,6.12,56.2 nM,38.9 nM,7.55,79.5%,c1ccc(OCCNCC2CCOC(c3ccccc3)(c3ccccc3)O2)cc1 (stereo unspecified)
23.4 nM,5.52,282 nM,288 nM,6.76,88.7%,c1ccc(OCCNCC2COC(c3ccccc3)(c3ccccc3)OC2)cc1
1.55 nM,6.51,91.2 nM,83.2 nM,7.46,90.2%,COc1ccccc1OCCNCC(CO)OC(c1ccccc1)c1ccccc1 (stereo unspecified)
25.7 nM,6.58,64.6 nM,50.1 nM,7.67,82.1%,COc1ccccc1OCCNCC[C@@H]1CO[C@H](C(c2ccccc2)c2ccccc2)O1 (relative stereo)
0.501 nM,6.74,14.8 nM,7.24 nM,8.17,22.1%,COc1ccccc1OCCNCCC1COC(c2ccccc2)(c2ccccc2)O1 (stereo unspecified)

SMILES,Ki [1],pKb [2],Ki [3],Ki [4],pKb [5],Emax [6]
COc1ccccc1OCCNCC1COC(c2ccccc2)(c2ccccc2)OC1.O=C(O)C(=O)O,1.62 nM,5.98,31.6 nM,33.9 nM,7.06,91.6%
